These are literature values, as cited in patent US20240044899A1, “BIOMARKERS FOR FIMEPINOSTAT THERAPY” (Curis, Inc, priority 2021, published 2024).

Read-outs that look alike come from different tables or passages of the source.

The test system of the series is MYC-altered DLBCL/HGBL patients. The note with it: Prospective phase 2, cited from earlier work.

Take Tisagenlecleucel: under “DHL, sample size 16”, the CRR is given as 25% and the ORR is 50%/. Take `O=C(/C=C\n1cnc(-c2cc(C(F)(F)F)cc(C(F)(F)F)c2)n1)NNc1cnccn1` [Selinexor, reference compound]: the ORR (MYC IHC >40%, sample size 47) is reported as 13%.
